Assay results taken from patent publication US10479814B2, “Adenosine receptor activation reagent and the uses of thereof” (Zhejiang Subtropical Crops Research Institute, priority 2014, dated 2019).

Key:
A1 receptor = settings: cited from earlier work; for A1 selectivity: according to document record (Jacobson 1992); for selectivity to the A1 receptor (in words): existing A1 agonists
[1] = test system: pentylenetetrazole induced convulsion; assay: pentylenetetrazole induced convulsion in mouse; format: in vivo; settings: antagonist ip 10 min before HEA 40 mg/kg, DPCPX 2 mg/kg, ZM241385 1 and 5 mg/kg
Protocol: Male ICR mouse, 18˜22 g; purchased from Animal Experiment Center of Wenzhou Medical University. Before experiment, animals were adapted to environment for at least 5 days. Kept at 25 °C, food and water were freely fed. Based on the weight, the healthy male ICR mice were randomly divided into control group (1% DMSO, ip), model group, CCPA group (0.1 mg·kg^−1, ip), HEA group (15 mg/kg, 40 mg/kg, 60 mg/kg), DPCPX group (2 mg·kg^−1, ip), ZM241385 group (1 mg·kg^−1, 5 mg·kg^−1, ip), DPCPX+HEA (2 mg·kg^−1+40 mg/kg, ip) group and ZM241385+HEA (1 mg·kg^−1+40 mg/kg, 5 mg·kg^−1+40 mg/kg ip) group.
The survival time and mortality after convulsion were respectively recorded for each group.

Row | Structure (SMILES) | A1 selectivity (A1 receptor) | selectivity to the A1 receptor (in words) (A1 receptor) | effect of antagonist on the anti-convulsion action of the HEA [1] | effect of antagonist on the anti-convulsion action of the HEA ([1]; listed as Zm241385)
1 | OC[C@H]1O[C@@H](n2cnc3c(NC4CCCC4)nc(Cl)nc32)[C@H](O)[C@@H]1O [CCPA] | 1500 fold | strong selectivity to the A1 receptor |  | 
2 | OC[C@H]1O[C@@H](n2cnc3c(NC4CCCCC4)ncnc32)[C@H](O)[C@@H]1O [CHA] |  | strong selectivity to the A1 receptor |  | 
3 | OC[C@H]1O[C@@H](n2cnc3c(NC4CCCC4)ncnc32)[C@H](O)[C@@H]1O [CPA] |  | strong selectivity to the A1 receptor |  | 
4 | OC[C@H]1O[C@@H](n2cnc3c(N[C@H]4CC5CCC4C5)ncnc32)[C@H](O)[C@@H]1O (stereo partly shown) [S-ENBA] | up to 4700 fold |  |  | 
5 | Nc1nc(NCCc2ccc(O)cc2)nc2nc(-c3ccco3)nn12 [ZM241385] |  |  | no significant effect on the anti-convulsion effect of the HEA | no significant effect on the anti-convulsion action of the HEA
